Reference: patent publication EP1397353B1, “2-(2,6-DISUBSTITUTED PHENYL)-4-ARYL-5-ALKYL-1,3-OXAZOLINE COMPOUNDS USEFUL AS INSECTICIDES AND ACARICIDES” (Dow AgroSciences LLC, priority 2001, dated 2003)

Columns and labels:
Format in all cases: in vivo
[1] = system: tobacco budworm (Heliothis virescens); assay: Insecticidal test for tobacco budworm (leaf-dip, cotton cotyledon discs); conditions: dipped cotton cotyledon discs, 2nd instar larvae, 5 days, rating of % Control; for pest or weed control at 400 ppm: Heliothis virescens, 120 h, read-out: TBW, activity at 400 ppm against tobacco budworm
Description: (§1) Insecticidal test for tobacco budworm (Heliothis virescens), beet armyworm (Spodoptera exigua), and cabbage looper (Trichoplusia ni).
(§2) To prepare test solution, the test compound was formulated at 400 ppm in 7.5 mL of 2 acetone: 1 tap water. 250 µL of the test solution was pipetted upon the surface of 8 mL of lepidopteran diet (modified Shorey) contained in each of five one-ounce plastic cups (one cup = 1 replication). […] After airdrying, the treated leaf discs were placed individually into one-ounce plastic cups. Each dried, treated cotton cotyledon disc was infested with a 2nd instar tobacco budworm larva, and each cabbage leaf disc was infested with a 2nd instar cabbage looper larva. Cups containing the treated substrates and larvae were capped and then held in a growth chamber at 25 °C, 50-55% RH, and 14 hr light: 10 hr dark for 5 days.

[2] = system: beet armyworm (Spodoptera exigua); assay: Insecticidal test for beet armyworm (treated lepidopteran diet); conditions: 2nd instar larvae, 5 days, rating of % Control; for pest or weed control at 400 ppm: Spodoptera exigua, 120 h, read-out: BAW, activity at 400 ppm against beet armyworm
Description: as §1, §2

[3] = system: cabbage looper (Trichoplusia ni); assay: Insecticidal test for cabbage looper (leaf-dip, cabbage leaf discs); conditions: dipped cabbage leaf discs, 2nd instar larvae, 5 days, rating of % Control; for pest or weed control at 400 ppm: Trichoplusia ni, foliar, 120 h, read-out: CL, activity at 400 ppm against cabbage looper
Description: as §1, §2

[4] = system: two-spotted spider mite (Tetranychus urticae); assay: Insecticidal test for two-spotted spider mite, ovicide method; conditions: for pest or weed control: Tetranychus urticae, read-out: SM, activity against two-spotted spider mite
Description: Insecticidal test for two-spotted spider mite (Tetranychus urticae)
Ten adult female two-spotted spider mites were placed on eight 2.2 cm leaf discs of cotton leaf, allowed to oviposit over 24 hours, and thereafter removed. […] Discs were placed on an agar substrate and held at 24 °C and 90% RH for 6 days.

[5] = foliar, 144 h, ovicide method, cotton leaf discs, 6 days, rating of % Control

Molecule	pest or weed control at 400 ppm [1]	pest or weed control at 400 ppm [2]	pest or weed control at 400 ppm [3]	other results
Cc1cc(Br)ccc1[C@@H]1N=C(c2c(F)cccc2F)O[C@H]1C (mixture of isomers) [Compound 42, (4S,5S)- and (4R,5R)-4-(4-bromo-2-methylphenyl)-2-(2,6-difluorophenyl)-5-methyl-4,5dihydro-1,3-oxazole]	< 50%			
C[C@@H]1OC(c2c(F)cccc2F)=N[C@H]1c1ccc(-c2ccc(Cl)cc2)cc1 (mixture of isomers) [Compound 37, (4S,5S)- and (4R,5R)-4-(4'-chloro-1,1'-biphenyl-4-yl)-2-(2,6-difluorophenyl)-5-methyl-4,5-dihydro-1,3-oxazole]	90 to 100%	90 to 100%	90 to 100%	
C[C@@H]1OC(c2c(F)cccc2F)=N[C@H]1c1ccc(-c2ccc(OC(F)(F)F)cc2)cc1 [Compound 47]				BAW, activity at 400 ppm against beet armyworm [2]: A (90-100); CL, activity at 400 ppm against cabbage looper [3]: A (90-100); SM, activity at 2.5 ppm against two-spotted spider mite ([4]; foliar, 144 h): A (90-100)
C[C@@H]1OC(c2c(F)cccc2F)=N[C@@H]1c1ccc(-c2ccccc2F)cc1 (racemic) [Compound 15, (4R,5S)- and (4S,5R)-2-(2,6-difluorophenyl)-4-2'-fluoro-1,1'-biphenyl-4-yl)-5-methyl-4,5-dihydro-1,3-oxazole]				CL, activity at 400 ppm against cabbage looper [3]: A (90-100)
C[C@H]1OC(c2c(F)cccc2F)=N[C@H]1c1ccc(-c2cccc(C(F)(F)F)c2)cc1 (mixture of isomers) [Compound 11, (4S,5R)- and (4R,5S)-2-(2,6-difluorophenyl)-5-methyl-4-[3'-(trifluoromethyl)-1,1'-biphenyl-4-yl]-4,5-dihydro-1,3-oxazole]	80 to 89%	90 to 100%	90 to 100%	
(4R,5R)- and (4S,5S)-4-(4-bromophenyl)-2-(2-chloro-6-fluorophenyl)-5-methyl-4,5-dihydro-1,3-oxazole [Compound 23]				TBW, activity at 400 ppm against tobacco budworm [1]: B (80-89); CL, activity at 400 ppm against cabbage looper [3]: F (less than 50); SM, activity at 2.5 ppm against two-spotted spider mite ([4]; ovicide method, cotton leaf discs, 6 days, rating of % Control): A (90-100)
C[C@@H]1OC(c2c(F)cccc2F)=N[C@H]1c1ccc(-c2ccc(C(F)(F)F)cc2)cc1 (mixture of isomers) [Compound 26, (4S,5S)- and (4R,5R)-2-(2,6-difluorophenyl)-5-methyl-4-[4'-(trifluoromethyl)-1,1'-biphenyl-4-yl]-4,5-dihydro-1,3-oxazole]	90 to 100%	90 to 100%	90 to 100%	pest or weed control [4, 5]: 90 to 100%
(4R,5R)- and (4S,5S)-4-phenyl-2-(2,6-difluorophenyl)-5-methyl-4,5-dihydro-1,3-oxazole [Compound 35]				TBW, activity at 400 ppm against tobacco budworm [1]: F (less than 50); CL, activity at 400 ppm against cabbage looper [3]: F (less than 50)
C[C@@H]1OC(c2c(F)cccc2F)=N[C@@H]1c1ccc(-c2ccc(C(F)(F)F)cc2F)cc1 (mixture of isomers) [Compound 16, (4R,5S)- and (4S,5R)-2-(2,6-difluorophenyl)-4-[2'-fluoro-4'-(trifluoromethyl)-1,1'-biphenyl-4-yl]-5-methyl-4,5-dihydro-1,3-oxazole]	90 to 100%	90 to 100%	90 to 100%	
CCOc1ccc(-c2ccc([C@H]3N=C(c4c(F)cccc4F)O[C@H]3C)c(C)c2)cc1 (mixture of isomers) [Compound 41, (4R,5S)- and (4S,5R)-2-(2,6-difluorophenyl)-4-(4'-ethoxy-3-methyl-1,1'-biphenyl-4-yl)-5-methyl-4,5-dihydro-1,3-oxazole]	90 to 100%	90 to 100%	90 to 100%	pest or weed control [4, 5]: 60 to 69%
Cc1ccc(-c2ccc([C@@H]3N=C(c4c(F)cccc4F)O[C@H]3C)cc2)cc1 (mixture of isomers) [Compound 36, (4S,5S)- and (4R,5R)-2-(2,6-difluorophenyl)-5-methyl-4-(4'-methyl-1,1'-biphenyl-4-yl)-4,5-dihydro-1,3-oxazole]	< 50%	< 50%	90 to 100%	
C[C@@H]1OC(c2c(F)cccc2F)=N[C@H]1c1ccc(-c2ccc3c(c2)OC(F)(F)O3)cc1 (mixture of isomers) [Compound 34, (4S,5S)- and (4R,5R)-4-[4-(2,2-difluoro-1,3-benzodioxol-5-yl)phenyl]-2-(2,6-difluorophenyl)-5-methyl-4,5-dihydro-1,3-oxazole]	< 50%		90 to 100%	
C[C@@H]1OC(c2c(F)cccc2F)=N[C@H]1c1ccc(-c2cccc(C(F)(F)F)c2)cc1 (mixture of isomers) [Compound 28, (4S,5S)- and (4R,5R)-2-(2,6-difluorophenyl)-5-methyl-4-[3'-(trifluoromethyl)-1,1'-biphenyl-4-yl]-4,5-dihydro-1,3-oxazole]	90 to 100%	90 to 100%	90 to 100%	pest or weed control [4, 5]: 90 to 100%
C[C@@H]1OC(c2c(F)cccc2F)=N[C@@H]1c1ccc(-c2ccc3c(c2)OC(F)(F)O3)cc1 (mixture of isomers) [Compound 13, (4R,5S)- and (4S,5R)-4-[4-(2,2-difluoro-1,3-benzodioxol-5-yl)phenyl]-2-(2,6-difluorophenyl)-5-methyl-4,5-dihydro-1,3-oxazole]	< 50%		90 to 100%	
C[C@@H]1OC(c2c(F)cccc2F)=N[C@@H]1c1ccc(-c2ccc(C(F)(F)F)cc2)cc1 (racemic) [Compound 5, (4R,5S)- and 4S,5R)-2-(2,6-difluorophenyl)-5-methyl-4-(4'-(trifluoromethyl)-1,1'-biphenyl-4-yl]-4,5-dihvdro-1,3-oxazole]				BAW, activity at 400 ppm against beet armyworm [2]: A (90-100); CL, activity at 400 ppm against cabbage looper [3]: A (90-100); SM, activity at 2.5 ppm against two-spotted spider mite ([4]; foliar, 144 h): A (90-100)
C[C@@H]1OC(c2c(F)cccc2F)=N[C@H]1c1ccc(-c2ccc(F)cc2)cc1 (mixture of isomers) [Compound 25, (4S,5S)- and (4R,5R)-2-(2,6-difluorophenyl)-4-(4'-fluoro-1,1'-biphenyl-4-yl)-5-methyl-4,5-dihydro-1,3-oxazole]	90 to 100%	90 to 100%	90 to 100%	pest or weed control [4, 5]: 90 to 100%
C[C@@H]1OC(c2c(F)cccc2F)=N[C@H]1c1ccc(-c2ccccc2F)cc1 (mixture of isomers) [Compound 31, (4S,5S)- and (4R,5R)-2-(2,6-difluorophenyl)-4-(2'-fluoro-1,1'-biphenyl-4-yl)-5-methyl-4,5-dihydro-1,3-oxazole]	< 50%	< 50%	90 to 100%	pest or weed control [4, 5]: 90 to 100%
Cc1ccc(-c2ccc([C@@H]3N=C(c4c(F)cccc4F)O[C@@H]3C)cc2)cc1 (mixture of isomers) [Compound 9, (4S,5R)- and (4R,5S)-2-(2,6-difluorophenyl)-5-methyl-4-(4'-methyl-1,1'-biphenyl-4-yl)-4,5-dihydro-1,3-oxazole]	< 50%	90 to 100%	90 to 100%	
Cc1ccc(-c2ccc([C@@H]3N=C(c4c(F)cccc4F)O[C@H]3C)cc2)cc1C (mixture of isomers) [Compound 29, (4S,5S)- and (4R,5R)-2-(2,6-difluorophenyl)-4-(3',4'-dimethyl-1,1'-biphenyl-4-yl)-5-methyl-4,5-dihydro-1,3-oxazole]	< 50%	60 to 69%	90 to 100%	
CCOc1ccc(-c2ccc([C@H]3N=C(c4c(F)cccc4F)O[C@H]3C)cc2)cc1 (racemic) [Compound 12, (4R,5S)- and (4S,5R)-2-(2,6-difluorophenyl)-4-(4'-ethoxy-1,1'-bphenyl-4-yl)-5-methyl-4,5-dihydro-1,3-oxazole]				TBW, activity at 400 ppm against tobacco budworm [1]: B (80-89); BAW, activity at 400 ppm against beet armyworm [2]: A (90-100); CL, activity at 400 ppm against cabbage looper [3]: A (90-100)
C[C@H]1OC(c2c(F)cccc2F)=N[C@H]1c1ccc(-c2ccc(Cl)cc2)cc1 (mixture of isomers) [Compound 10, (4S,5R)- and (4R,5S)-4-(4'-chloro-1,1'-biphenyl-4-yl)-2-(2,6-difluorophenyl)-5-methyl-4,5-dihydro-1,3-oxazole]	90 to 100%	90 to 100%	90 to 100%	
